Some test systems named below: A498; ACHN; CAKI-1; HL-60; HOP-62; HOP-92; IGROV-1; K562; LOX IMVI; M14; NCI-H226; NCI-H522; OVCAR-5; OVCAR-8; SF-268; SF-295; SNB-19; SW-620; Malme-3M; OVCAR-3.
Common to all, as to assay: growth of human tumour cells (NCI), 48 h

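Briefly, cells in 96-well plates were exposed to five compound concentrations for 48 h, and endpoints were estimated by linear interpolation. GI50: concentration for 50% inhibition of growth.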 Activity calls are given as the source filed them. Cut-off read from the data, not from the text of the source: active = GI50 up to about 1.1 µM and inactive = higher. Where only a bound is given, the exact number is not on record here.

For the compound `O=C(Nc1ccc(F)cc1)C(=O)C(C(=O)c1ccccc1F)C1OC(=O)c2ccccc21` (centres undefined), the GI50 with A498 was > 100 µM (inactive); with ACHN, > 100 µM (inactive); with CAKI-1, > 100 µM (inactive); with HL-60, 29.8 µM (inactive); in the assay with HOP-62, > 100 µM (inactive); in the assay with HOP-92, > 100 µM (inactive). The GI50 was > 100 µM (inactive) in the assay with IGROV-1; 34.7 µM (inactive) in the assay with K562; 35.6 µM (inactive) in the assay on LOX IMVI; > 100 µM (inactive) in the assay on M14; 21.4 µM (inactive) in the assay with NCI-H226; 15 µM (inactive) in the assay on NCI-H522. In addition, the GI50 was > 100 µM (inactive) in the assay with OVCAR-5; 43 µM (inactive) in the assay with OVCAR-8; 50 µM (inactive) with SF-268; 68.5 µM (inactive) with SF-295; 39.4 µM (inactive) in the assay with SNB-19; 58.6 µM (inactive) with SW-620.
Turning to `CCOCc1cc(=O)c2c(O)cc3c(c2o1)CCC(C)(C)O3`, the GI50 with A498 is > 100 µM (inactive); with ACHN, > 100 µM (inactive); in the assay with CAKI-1, > 100 µM (inactive); in the assay on HL-60, > 100 µM (inactive); in the assay on HOP-92 it was 4.86 µM (inactive); in the assay on IGROV-1, > 100 µM (inactive). Besides, the GI50 with K562, with LOX IMVI, with M14, in the assay with Malme-3M, with NCI-H226 and in the assay with NCI-H522 was > 100 µM (inactive) each time. In addition, the GI50 with OVCAR-3, in the assay on OVCAR-8, in the assay on SF-268, with SF-295, in the assay with SNB-19 and with SW-620 was > 100 µM (inactive) throughout.
For `O=[S@@]1Nc2ccc(Br)cc2S1`, the GI50 was 1.07 µM (active) in the assay on ACHN; 1.15 µM (inactive) in the assay on CAKI-1; 2.22 µM (inactive) in the assay with HL-60; > 100 µM (inactive) in the assay on HOP-92; 53 µM (inactive) in the assay with IGROV-1; 0.766 µM (active) with K562. The GI50 is 0.437 µM (active) in the assay with LOX IMVI; 1.4 µM (inactive) in the assay with M14; 97.3 µM (inactive) in the assay on Malme-3M; > 100 µM (inactive) with NCI-H226; 0.887 µM (active) in the assay on NCI-H522; 31.2 µM (inactive) with OVCAR-3. Besides, the GI50 was 2.44 µM (inactive) in the assay on SF-268, 40 µM (inactive) in the assay on SF-295, 2.77 µM (inactive) in the assay on SNB-19 and 0.74 µM (active) in the assay on SW-620.
Consider `Clc1ccc(N/N=C(\c2ccccc2)c2ccccn2)nc1`, for which the GI50 was 49.8 µM (inactive) in the assay with A498; < 0.01 µM (active) with ACHN; < 0.01 µM (active) with CAKI-1; < 0.01 µM (active) in the assay with HL-60; 1.12 µM (active) in the assay with HOP-62; 0.101 µM (active) with HOP-92. In addition, the GI50 with IGROV-1 was 0.0239 µM (active); with M14 it was < 0.01 µM (active); in the assay on Malme-3M, < 0.01 µM (active); in the assay with NCI-H226, 0.0891 µM (active); in the assay with NCI-H522, < 0.01 µM (active); in the assay with OVCAR-3, < 0.0121 µM (active). In addition, the GI50 was 0.895 µM (active) in the assay with OVCAR-5; < 0.01 µM (active) in the assay on OVCAR-8; 0.0258 µM (active) in the assay on SF-268; 0.323 µM (active) in the assay on SF-295; 1.17 µM (inactive) in the assay on SNB-19; < 0.01 µM (active) with SW-620.
Regarding `CCOC(=O)c1nc2ccc(OC)cc2c2c1Cc1ccccc1-2`, the GI50 with ACHN, with CAKI-1, in the assay with HOP-62, with IGROV-1, in the assay with K562 and in the assay on LOX IMVI was > 100 µM (inactive) in each case. Also, the GI50 is > 100 µM (inactive) with M14; > 100 µM (inactive) in the assay with Malme-3M; > 100 µM (inactive) in the assay on NCI-H226; 56.5 µM (inactive) in the assay with NCI-H522; > 100 µM (inactive) with OVCAR-3; > 100 µM (inactive) in the assay on OVCAR-5. For the same compound, the GI50 in the assay on OVCAR-8, in the assay on SF-268, in the assay with SF-295, with SNB-19 and in the assay with SW-620 was > 100 µM (inactive) in each case.
As to `CC1CC=CC(O)C1` (centres undefined), the GI50 in the assay with A498, in the assay with HL-60, in the assay with HOP-62, in the assay on HOP-92, with IGROV-1 and in the assay with K562 was > 100 µM (inactive) each time. Moreover, the GI50 in the assay with LOX IMVI, in the assay with Malme-3M, with NCI-H226, with NCI-H522, in the assay with OVCAR-3 and in the assay on OVCAR-5 was > 100 µM (inactive) throughout. The GI50 with OVCAR-8, in the assay with SF-268, with SF-295, with SNB-19 and with SW-620 was > 100 µM (inactive) each time.
On to `COC(=O)/C=C\n1nc(Br)c(=O)[nH]c1=O`, for which the GI50 in the assay on A498 is > 100 µM (inactive); in the assay with ACHN, > 100 µM (inactive); with CAKI-1 it was > 100 µM (inactive); in the assay on HL-60 it was 66.4 µM (inactive); in the assay with HOP-62 it was > 100 µM (inactive); in the assay with HOP-92, > 100 µM (inactive). Also, the GI50 was > 100 µM (inactive) in the assay with IGROV-1; > 100 µM (inactive) with K562; > 100 µM (inactive) in the assay on LOX IMVI; > 100 µM (inactive) with M14; > 100 µM (inactive) in the assay on Malme-3M; 35.1 µM (inactive) with NCI-H522. The GI50 in the assay with OVCAR-3, in the assay on OVCAR-5, with OVCAR-8, with SF-268, with SNB-19 and in the assay on SW-620 was > 100 µM (inactive) each time.
For the compound `O=S(O)c1cc(Cl)cc(Cl)c1O`, the GI50 in the assay with A498, with ACHN, with HL-60, in the assay with HOP-62, in the assay with K562 and with LOX IMVI was > 100 µM (inactive) each time. Further, the GI50 in the assay on M14, in the assay on Malme-3M, in the assay on NCI-H522, with OVCAR-3, with OVCAR-5 and with SF-268 was > 100 µM (inactive) throughout. For the same compound, the GI50 in the assay with SNB-19 was > 100 µM (inactive).
Regarding `O=c1[nH]cnc2sc(=S)c3c(c12)CCC3`, the GI50 in the assay with ACHN was 17.3 µM (inactive); in the assay on CAKI-1 it was 19.3 µM (inactive); with HL-60, 22.2 µM (inactive); with HOP-62 it was 52.2 µM (inactive); in the assay on HOP-92, 23.8 µM (inactive); with IGROV-1, 15.8 µM (inactive). For the same compound, the GI50 in the assay with K562 is 12.2 µM (inactive); in the assay on LOX IMVI it was 24.7 µM (inactive); in the assay with M14, 34.2 µM (inactive); in the assay with Malme-3M it was 37.2 µM (inactive); in the assay on NCI-H226, 20.8 µM (inactive); in the assay on NCI-H522, 15.9 µM (inactive). Also, the GI50 was 18.4 µM (inactive) with OVCAR-3; 47.8 µM (inactive) in the assay on OVCAR-5; 38.4 µM (inactive) in the assay with OVCAR-8; > 100 µM (inactive) in the assay on SF-268; > 100 µM (inactive) with SF-295; 48.5 µM (inactive) in the assay with SNB-19. The GI50 in the assay on SW-620 was 21.6 µM (inactive).
As to `O=S(O)c1cc(Cl)cc(Cl)c1OCc1ccccc1`, the GI50 in the assay with A498, with ACHN, with HL-60, in the assay with HOP-62, in the assay with K562 and with LOX IMVI was > 100 µM (inactive) in each case. The GI50 in the assay with M14, in the assay with Malme-3M, in the assay with NCI-H522, in the assay with OVCAR-3, in the assay with OVCAR-5 and in the assay with SF-268 was > 100 µM (inactive) throughout. Moreover, the GI50 with SNB-19 was > 100 µM (inactive).
Consider `COCC1N=C(c2cc(OC)c(OC)c(OC)c2-c2cc3c(cc2[C@@H](C)O)OCO3)O[C@H]1c1ccccc1` (some centres undefined), for which the GI50 in the assay on A498 is > 94.4 µM (inactive); with CAKI-1 it was 99.8 µM (inactive); in the assay with HL-60 it was > 100 µM (inactive); with HOP-62, 86.3 µM (inactive); in the assay with HOP-92 it was 34.4 µM (inactive); with IGROV-1, > 68.9 µM (inactive). Also, the GI50 is > 100 µM (inactive) with K562; > 100 µM (inactive) with LOX IMVI; > 80.5 µM (inactive) in the assay with Malme-3M; > 77.1 µM (inactive) in the assay with NCI-H226; 36.2 µM (inactive) in the assay on NCI-H522; 50 µM (inactive) with OVCAR-3. In addition, the GI50 with OVCAR-5 is > 73.8 µM (inactive); in the assay with OVCAR-8, > 74.5 µM (inactive); in the assay with SF-268, > 66.2 µM (inactive); in the assay with SF-295, 57.7 µM (inactive); in the assay on SNB-19, 73.1 µM (inactive); in the assay with SW-620, > 100 µM (inactive).
With `OCC1C2C=CC(O2)[C@H]1CO` (some centres undefined), the GI50 in the assay on A498, with ACHN, in the assay on CAKI-1, in the assay with HL-60, with HOP-62 and with HOP-92 was > 100 µM (inactive) each time. For the same compound, the GI50 in the assay with IGROV-1, in the assay on LOX IMVI, with M14, in the assay on Malme-3M, in the assay with NCI-H226 and with NCI-H522 was > 100 µM (inactive) throughout. Further, the GI50 with OVCAR-3, in the assay with OVCAR-5, with OVCAR-8, in the assay with SF-268, in the assay on SF-295 and with SNB-19 was > 100 µM (inactive) each time. Also, in the assay with SW-620, the GI50 was > 100 µM (inactive).

Values taken from ChEMBL document CHEMBL1201862, “PubChem BioAssay data set” (2004).
